Common to all, as to format: cell-based, human
The subject of experiment [1] is ENCC-derived neurons in HCO explants. Kind of experiment: Ex vivo neuromuscular coupling test of HCO muscle strips (DMPP stimulation).
Experiment [2] deals with hPSC-derived NC cells. Kind of experiment: Single-cell RNA-seq clustering of hPSC-derived NC cells. To be noted: SAG treatment groups (day 0-4, day 0-10). An excerpt: To understand how HH signaling influences the topology of the neuronal differentiation path of NC, Applicant profiled additional 1,146 single-cell transcriptomes of NC cells with the constant (day 0-10) or early-phase (day 0-4) SAG treatment and NC-derived neurons sampled from day 32 of differentiation as shown in FIG. 4A. Together with 392 control NC cells, a total of 1,538 individual cells were sequenced with 5844 median genes and 1.16 million mean confident mapped reads per cell (FIG. 8). […]
Bulk and single-cell (sc) RNA sequencing were performed at the Centre of Genomic Science, The University of Hong Kong. […] Then, 1 μl of cDNA was checked and quantified on an Agilent Bioanalyzer high-sensitivity DNA chip. […] Libraries were checked and quantified on an Agilent Bioanalyzer high-sensitivity DNA chip (size range 150-2000 bp) and by Qubit dsDNA BR (Molecular Probes). […]
Fastq files with paired-end reads were aligned to the ENSEMBL GRCh38 (release 90, https://www.ensembl.org/) human transcriptome using Bowtie2 v2.3.4.1 (Langmead and Salzberg, 2012) with options ‘—sensitive—mp 1,1—np 1—score-min L,0,-0.1-I 1-X 2000—no-mixed—no-discordant-N 1-L 25-k 200’ which allows one mismatch during sequence alignment. Quality control of the reads of each cell was assessed using FastQC v0.11.6 (FIG. 8). Gene expression level was quantified using TPM values generated by RSEM v1.3.0 (Li and Dewey, 2011). […]

The test system of experiment [3] is hPSC-derived NC cells. Kind of experiment: In vitro neuronal differentiation of FACS-sorted NC cells, immunocytochemistry. The conditions noted are these: NC^SAG0-10 cells, day 22 of differentiation. An excerpt: On the other hand, NC^SAG0-10 cells could grow and expand as competently as the control cells. Applicant then examined the differentiation potential of NC^SAG0-10 cells on the basis of their neuronal differentiation capability, as monitored by the expression of pan-neuronal markers (HU, TUJ1 and PGP9.5) and subtype markers, such as tyrosine hydroxylase (TH) for dopaminergic neurons and vasoactive intestinal polypeptide (VIP) for cholinergic neurons, which are the major subtypes of nerve cells found in the ENS.
Around 40 thousand FACS-enriched NC cells were seeded as droplets on poly-ornithine/laminin/fibronectin (PO/LM/FN)-coated 24 well plate in N2 medium containing 10 ng/ml FGF2, 3 μM CHIR99021 and 10 μM Y-27632. […]
For immunocytochemistry, the cells were fixed with 4% paraformaldehyde in PBS at room temperature for 30 min, followed by blocking with 1% bovine serum albumin (BSA) (Thermo Scientific, 23209) with or without 0.1% Triton X-100 (Sigma, T8787) in PBS buffer. […] Quantitative image analysis of differentiated neuronal cultures was performed with ImageJ. A minimum of 4,000 cells were analyzed per sample. Percentages of neuronal cells were measured over the total number of cells (DAPI) and the values reported in bar charts represent the mean±SEM.

Another experiment deals with hPSCs. Put plainly: Early-phase lineage immunocytochemistry during NC induction (SOX2+NANOG-, SNAIL+, TUJ1+/TH+).
A further experiment concerns HCOs+ENCCs explants. Put plainly: Electrical-field stimulation (EFS) of explanted innervated HCO kidney grafts.
The subject of experiment [4] is hPSCs (hPSC-to-NC transition). Put plainly: hPSC-to-NC differentiation, flow cytometry of HNK-1+ p75NTR+ cells. To be noted: for percentage of HNK-1+ p75NTR+ cells (NC yield): flow cytometry at day 10. A general note: In flow cytometry, cells or beads pass a laser one at a time.
The subject of another experiment is HCOs+ENCCs. Put plainly: Innervated HCO model, immunostaining of neurons.

Consider `CNC1CCC(N(Cc2cccc(-c3ccncc3)c2)C(=O)c2sc3ccccc3c2Cl)CC1` (stereo not shown) [SAG], for which the “contractile responses to DMPP compared to HCO+ENCC” value in experiment [1] (HCO+ENCC^SAG0_10) is “stronger contractile responses”. The “proportion of SAG-specific NC intermediates (Clusters 6 & 7; SOX10-, PHOX2B+, TUBB3high) in total population” value with hPSC-derived NC cells [2] is “up to 75%”. The “numbers of TH+ and VIP+ neurons compared to control” value in the experiment with hPSC-derived NC cells [3] was “Significantly greater numbers”. Moreover, the “number of SOX2+NANOG- cells (ectoderm lineage commitment)” value with hPSCs (brief activation in early phase of NC induction, day 4 of differentiation) is “increases the number”. Also, the “formation of NC-like cells (SNAIL+)” value in the experiment on hPSCs (longer SAG treatment (4 days)) was “emerged as early as day 4”. In the experiment with hPSCs (prolonged (day 0-10) or late-phase (day 4-10) SAG treatment), the NC-to-neuron transition entry is “boosted the NC-to-neuron transition”. In addition, the “EFS-induced wave-like contractions compared to HCO+ENCC group” value in the experiment on HCOs+ENCCs explants (HCO+ENCC^SAG0_10 explants (ENCCs derived with SAG day 0-10)) is listed as “more profound series of wave-like contractions”. The “percentage of HNK-1+ p75NTR+ cells (NC yield)” value is reported as 42.5±9.3% in experiment [4] (SAG 1 μM, days 0-10 (constant), untreated 19.6±0.51%) and “up to 44.6±9.1%” in experiment [4] (SAG added 4 days in early phase (day 0-4)). Moreover, the “mature neurons expressing PGP9.5 and NF vs control” value with HCOs+ENCCs (HCO+ENCCs^SAG0_10 explants) is listed as “more mature neurons”. Also, in the experiment with HCOs+ENCCs (HCOs with ENCCs^SAG0_10 in vitro (Day 28)), the “TUJ1+ and TH+ cells aligned with epithelial cells of HCOs vs control” value is “more TUJ1^+ and TH^+ cells”. Besides, the “survival and engraftment efficiency of ENCCs to HCOs” value with HCOs+ENCCs (SAG treatment during NC induction) is given as “greatly improves”.
In the case of `NC1=N[C@H](O)[C@H]2[C@H]3O[C@]4(O)O[C@@H]([C@@H](O)[C@@]2(N1)[C@@H]4O)[C@]3(O)CO` [TTX, tetrodotoxin], the DMPP-induced muscle contraction entry in experiment [1] is given as “completely abolished”. Also, in the experiment with HCOs+ENCCs explants, the EFS-induced contractions entry is on record as “completely inhibited” and the “contractile activity triggered by low-voltage stimulation” value was “completely inhibited”.
Take `CC1=C2C[C@H]3[C@@H](CC=C4C[C@@H](O)CC[C@@]43C)[C@@H]2CC[C@]12O[C@@H]1C[C@H](C)CN[C@H]1[C@H]2C` [cyclopamine]: the “hPSC-to-NC transition (percentage of HNK-1+p75NTR+ cells)” value in experiment [4] was “dramatically suppressed”.

(Values after patent US12600943B2, “Innervated organoid compositions and methods of making same” (priority 2019, dated 2026).)
